According to US20080194642A1, “HIGH DOSE, LONG-ACTING ECTOPARASITICIDE FOR EXTENDED CONTROL” (Wyeth, priority 2007, published 2008):

Legend:
[1] = system: cat flea, Ctenocephalides felis; assay: Duration of control in dogs treated with ectoparasiticides at up to 3x the conventional dose against the cat flea (Example 6); type: in vivo
Source text: In this evaluation, 32 mixed breed male or female dogs, aged 1 to 10 years, were used. Dogs were not treated with an ectoparasiticide for 60 days prior to the study. No drugs, baths, shampoos or pesticides were given to the dogs during the preconditioning phase or during the course of the study other than what is described in the protocol. At least 36 dogs were preconditioned for 14 days. All dogs were bathed with noninsecticidal shampoo (Day −12 to −8). On Day −7, each dog was infested with 100 unfed cat fleas, Ctenocephalides felis. On Day −5, each dog was thoroughly examined and then combed to remove and count fleas. Dogs were selected for inclusion in the study on the basis of flea retention and/or behavior. The 32 dogs with the highest flea counts were selected for the study, except for exclusion of dogs deemed not easily handled. The dogs were blocked by flea number retained, and randomly allocated within blocks into 8 groups of 4 dogs.
Applications for Groups B-H were administered using disposable syringes. Each dog received a spot of the appropriate formulation to the skin (by syringe without a needle) at the dorsal midline between the shoulder blades. Group A was left untreated. […] Observations for post-treatment adverse reactions, skin irritation and behavior of test formulations were made at four hours following administration of treatments. Thereafter, dogs were observed once daily on Days 1-14 for formulation acceptability, adverse reactions, or signs of skin irritation following treatment. Daily observations of the physical condition of the animals were made throughout the trial.
Dogs were infested with 100 adult cat fleas, Ctenocephalides felis, on Day 14 and then examined for live fleas on Day 16. The dogs were re-infested/examined on Days 28/30, 56/58, 70/72, 84/86 and then infested and examined again at 2 week intervals until efficacy waned. At each infestation, 100 unfed adult fleas were applied along the lateral midline of each dog. The negative control group (Group A) was infested before the test compound groups. Fleas were recovered by examining and combing the groups in the same order. Combs were washed and rinsed with alcohol between dogs. Plastic gloves and aprons were changed between treatment groups.
(§1) Flea counts were transformed by log (count +1), and geometric means were used to calculate percent efficacy for the treatments using (Yc−Yt)/Yc*100, where Yc and Yt equal mean counts for control and treated groups, respectively.

[2] = system: cat flea, Ctenocephalides felis; assay: Duration of efficacy of high doses of ectoparasiticides against the cat flea in cats (Example 5); type: in vivo
Source text: In this evaluation, 32 domestic shorthair cats of mixed sex, aged at least 6 months, were used to test the high doses of ectoparasiticides disclosed herein. Cats were free of ectoparasiticide treatment for 60 days prior to administration of the experimental treatments. No drugs, baths, shampoos, or pesticides were given to the cats during the preconditioning phase or during the course of the study other than what is described in the protocol. At least 36 cats were preconditioned for 7 days. On day −7, each cat was infested with 100 unfed cat fleas, Ctenocephalides felis. On Day −5, each cat was thoroughly examined and combed to remove and count fleas. 32 cats were ranked in descending order by flea count. From the ranking, the cats were divided into four blocks of eight cats each. The eight cats within each of the four blocks were randomly allocated to treatment groups (A-H).
Applications for groups B-H were administered using a disposable syringe. The dose was applied as a single spot on the dorsal neck at the base of the skull. Group A was left untreated. […] On Days 1 through 14 following administration of the treatments, cats were observed daily for reactions and formulation acceptability. Thereafter, cats were observed once daily for the remainder of the study. Cats were infested with 100 adult cat fleas on Day 14 then examined for fleas on Day 16. The cats were re-infested and examined again on Days 28 and 30, on Days 56 and 58 then bi-weekly until efficacy waned. At each infestation, 100 unfed adult fleas were applied along the dorsal rump of each cat. The negative control group (Group A) was infested before the test compound groups. Fleas were recovered by examining and combing the groups in the same order. Combs were washed and rinsed with alcohol between cats, and latex gloves were changed between treatment groups.
as §1

[3] = 7 mg fipronil/kg (1×) spot-on, Day 16
[4] = 7 mg fipronil/kg (1×) spot-on, Day 30
[5] = 7 mg fipronil/kg (1×) spot-on, Day 58
[6] = 7 mg fipronil/kg (1×) spot-on, Day 72
[7] = 7 mg fipronil/kg (1×) spot-on, Day 86
[8] = 7 mg fipronil/kg (1×) spot-on, Day 100
[9] = 7 mg fipronil/kg (1×) spot-on, Day 114
[10] = 21 mg fipronil/kg (3×) spot-on, Day 16
[11] = 21 mg fipronil/kg (3×) spot-on, Day 30
[12] = 21 mg fipronil/kg (3×) spot-on, Day 58
[13] = 21 mg fipronil/kg (3×) spot-on, Day 72
[14] = 21 mg fipronil/kg (3×) spot-on, Day 86
[15] = 21 mg fipronil/kg (3×) spot-on, Day 100
[16] = 7.5 mg fipronil/kg spot-on, Day 16
[17] = 7.5 mg fipronil/kg spot-on, Day 30
[18] = 7.5 mg fipronil/kg spot-on, Day 58
[19] = 7.5 mg fipronil/kg spot-on, Day 72
[20] = 7.5 mg fipronil/kg spot-on, Day 86
[21] = 7.5 mg fipronil/kg spot-on, Day 100
[22] = 22.5 mg fipronil/kg spot-on, Day 16
[23] = 22.5 mg fipronil/kg spot-on, Day 30
[24] = 22.5 mg fipronil/kg spot-on, Day 58
[25] = 22.5 mg fipronil/kg spot-on, Day 72
[26] = 22.5 mg fipronil/kg spot-on, Day 86
[27] = 22.5 mg fipronil/kg spot-on, Day 100
[28] = 10 mg imidacloprid/kg (1×) spot-on, Day 16
[29] = 10 mg imidacloprid/kg (1×) spot-on, Day 30
[30] = 10 mg imidacloprid/kg (1×) spot-on, Day 58
[31] = 10 mg imidacloprid/kg (1×) spot-on, Day 72
[32] = 10 mg imidacloprid/kg (1×) spot-on, Day 86
[33] = 30 mg imidacloprid/kg (3×) spot-on, Day 16
[34] = 30 mg imidacloprid/kg (3×) spot-on, Day 30
[35] = 30 mg imidacloprid/kg (3×) spot-on, Day 58
[36] = 30 mg imidacloprid/kg (3×) spot-on, Day 72
[37] = 30 mg imidacloprid/kg (3×) spot-on, Day 86
[38] = 10 mg imidacloprid/kg spot-on, Day 16
[39] = 10 mg imidacloprid/kg spot-on, Day 30
[40] = 10 mg imidacloprid/kg spot-on, Day 58
[41] = 10 mg imidacloprid/kg spot-on, Day 72
[42] = 10 mg imidacloprid/kg spot-on, Day 86
[43] = 10 mg imidacloprid/kg spot-on, Day 100
[44] = 30 mg imidacloprid/kg spot-on, Day 16
[45] = 30 mg imidacloprid/kg spot-on, Day 30
[46] = 30 mg imidacloprid/kg spot-on, Day 58
[47] = 30 mg imidacloprid/kg spot-on, Day 72
[48] = 30 mg imidacloprid/kg spot-on, Day 86
[49] = 30 mg imidacloprid/kg spot-on, Day 100

SMILES: N#Cc1ccc(CC(=NNC(=O)Nc2ccc(OC(F)(F)F)cc2)c2cccc(C(F)(F)F)c2)cc1 (mixture of isomers) [metaflumizone, (E,Z)-2-[2-(4-cyanophenyl)-1-[3-(trifluoromethyl)phenyl]ethylidene]-N-[4-(tri-fluoromethoxy)phenyl]hydrazinecarboxamide]
- % Efficacy ([1]; metaflumizone 60 mg/kg (3×) spot-on, Day 128): 96.5%

SMILES: N#Cc1nn(-c2c(Cl)cc(C(F)(F)F)cc2Cl)c(N)c1[S+]([O-])C(F)(F)F (stereo not shown) [fipronil]
- % Efficacy [1, 3]: 99.8%
- Flea Counts/Dog/Day (Geometric Means) [1, 3]: 0.2
- % Efficacy [1, 4]: 99.8%
- Flea Counts/Dog/Day (Geometric Means) [1, 4]: 0.2
- % Efficacy [1, 5]: 100.0%
- Flea Counts/Dog/Day (Geometric Means) [1, 5]: 0.0
- % Efficacy [1, 6]: 96.9%
- Flea Counts/Dog/Day (Geometric Means) [1, 6]: 2.4
- % Efficacy [1, 7]: 97.4%
- Flea Counts/Dog/Day (Geometric Means) [1, 7]: 2.3
- % Efficacy [1, 8]: 94.1%
- Flea Counts/Dog/Day (Geometric Means) [1, 8]: 4.3
- % Efficacy [1, 9]: 84.7%
- Flea Counts/Dog/Day (Geometric Means) [1, 9]: 10.2
- % Efficacy [1, 10]: 100.0%
- Flea Counts/Dog/Day (Geometric Means) [1, 10]: 0.0
- % Efficacy [1, 11]: 100.0%
- Flea Counts/Dog/Day (Geometric Means) [1, 11]: 0.0
- % Efficacy [1, 12]: 90.7%
- Flea Counts/Dog/Day (Geometric Means) [1, 12]: 7.5
- % Efficacy [1, 13]: 85.4%
- Flea Counts/Dog/Day (Geometric Means) [1, 13]: 11.4
- % Efficacy [1, 14]: 48.0%
- Flea Counts/Dog/Day (Geometric Means) [1, 14]: 45.3
- % Efficacy [1, 15]: 39.5%
- Flea Counts/Dog/Day (Geometric Means) [1, 15]: 44.1
- % Efficacy [2, 16]: 97.7%
- Flea comb count, G.M. [2, 16]: 1.2
- % Efficacy [2, 17]: 96.4%
- Flea comb count, G.M. [2, 17]: 2.3
- % Efficacy [2, 18]: 78.8%
- Flea comb count, G.M. [2, 18]: 11.5
- % Efficacy [2, 19]: 81.1%
- Flea comb count, G.M. [2, 19]: 12.5
- % Efficacy [2, 20]: 66.9%
- Flea comb count, G.M. [2, 20]: 19.2
- % Efficacy [2, 21]: 14.3%
- Flea comb count, G.M. [2, 21]: 50.6
- % Efficacy [2, 22]: 97.8%
- Flea comb count, G.M. [2, 22]: 1.2
- % Efficacy [2, 23]: 100.0%
- Flea comb count, G.M. [2, 23]: 0.0
- % Efficacy [2, 24]: 93.8%
- Flea comb count, G.M. [2, 24]: 3.4
- % Efficacy [2, 25]: 94.7%
- Flea comb count, G.M. [2, 25]: 3.5
- % Efficacy [2, 26]: 64.9%
- Flea comb count, G.M. [2, 26]: 20.3
- % Efficacy [2, 27]: 31.5%
- Flea comb count, G.M. [2, 27]: 40.4

SMILES: O=[N+]([O-])/N=C1\NCCN1Cc1ccc(Cl)nc1 [imidacloprid]
- % Efficacy [1, 28]: 100.0%
- Flea Counts/Dog/Day (Geometric Means) [1, 28]: 0.0
- % Efficacy [1, 29]: 100.0%
- Flea Counts/Dog/Day (Geometric Means) [1, 29]: 0.0
- % Efficacy [1, 30]: 98.1%
- Flea Counts/Dog/Day (Geometric Means) [1, 30]: 1.5
- % Efficacy [1, 31]: 80.3%
- Flea Counts/Dog/Day (Geometric Means) [1, 31]: 15.4
- % Efficacy [1, 32]: 88.9%
- Flea Counts/Dog/Day (Geometric Means) [1, 32]: 9.7
- % Efficacy ([1]; 10 mg imidacloprid/kg (1×) spot-on, Day 100): 78.3%
- % Efficacy ([1]; 10 mg imidacloprid/kg (1×) spot-on, Day 114): 52.6%
- % Efficacy [1, 33]: 100.0%
- Flea Counts/Dog/Day (Geometric Means) [1, 33]: 0.0
- % Efficacy [1, 34]: 100.0%
- Flea Counts/Dog/Day (Geometric Means) [1, 34]: 0.0
- % Efficacy [1, 35]: 100.0%
- Flea Counts/Dog/Day (Geometric Means) [1, 35]: 0.0
- % Efficacy [1, 36]: 97.0%
- Flea Counts/Dog/Day (Geometric Means) [1, 36]: 2.4
- % Efficacy [1, 37]: 96.4%
- Flea Counts/Dog/Day (Geometric Means) [1, 37]: 3.1
- % Efficacy ([1]; 30 mg imidacloprid/kg (3×) spot-on, Day 100): 96.8%
- % Efficacy ([1]; 30 mg imidacloprid/kg (3×) spot-on, Day 114): 96.6%
- % Efficacy ([1]; 30 mg imidacloprid/kg (3×) spot-on, Day 128): 94.5%
- % Efficacy [2, 38]: 100.0%
- Flea comb count, G.M. [2, 38]: 0.0
- % Efficacy [2, 39]: 98.5%
- Flea comb count, G.M. [2, 39]: 1.0
- % Efficacy [2, 40]: 81.4%
- Flea comb count, G.M. [2, 40]: 10.0
- % Efficacy [2, 41]: 84.8%
- Flea comb count, G.M. [2, 41]: 10.0
- % Efficacy [2, 42]: 71.1%
- Flea comb count, G.M. [2, 42]: 16.7
- % Efficacy [2, 43]: 43.5%
- Flea comb count, G.M. [2, 43]: 33.3
- % Efficacy [2, 44]: 100.0%
- Flea comb count, G.M. [2, 44]: 0.0
- % Efficacy [2, 45]: 99.5%
- Flea comb count, G.M. [2, 45]: 0.3
- % Efficacy [2, 46]: 100.0%
- Flea comb count, G.M. [2, 46]: 0.0
- % Efficacy [2, 47]: 99.0%
- Flea comb count, G.M. [2, 47]: 0.7
- % Efficacy [2, 48]: 96.0%
- Flea comb count, G.M. [2, 48]: 2.3
- % Efficacy [2, 49]: 91.4%
- Flea comb count, G.M. [2, 49]: 5.1
